Here are results for 23 compounds from ChEMBL document CHEMBL5038632, “Discovery and Characterization of Potent Dual P-Glycoprotein and CYP3A4 Inhibitors: Design, Synthesis, Cryo-EM Analysis, and Biological Evaluations” (J Med Chem, 2022).

The subject of data set [1] is MES-SA/Dx5. In words: Cytotoxicity in human MES-SA/Dx5 cells assessed as reduction in cell viability at 1.28 uM incubated for 3 days by MTT assay relative to control. The note with it: mes-sa/dx5, 72 h, time 3 day. The format is toxicity, cell-based.
Data set [2] addresses Cytochrome P450 3A4 (Homo sapiens, UniProt P08684). Description: Inhibition of CYP3A4 in human liver microsomes using IPA as substrate preincubated for 10 mins followed by NADPH generating system addition and measured after 20 mins. Background: Liver microsomes are vesicles of endoplasmic reticulum, rich in cytochrome P450 enzymes.
Data set [3] deals with MDR1. Description: Apparent permeability across basolateral side to apical side in MDCKII-MDR1 cells at 1 uM by LC/MS/MS analysis. The note with it: dog, MDCK-MDR1. The format is ADME, cell-based, Canis lupus familiaris.
The nature of data set [4]: Efflux ratio of apparent permeability across apical to basolateral to basolateral to apical membrane membrane in MDCK1 at 1 uM. The format is ADME, cell-based, Canis lupus familiaris. The following applies: dog, MDCK.
In data set [5] the test system is MDR1. Description: Efflux ratio of apparent permeability across apical to basolateral to basolateral to apical membrane in MDCKII-MDR1 at 1 uM. The format is ADME, cell-based, Canis lupus familiaris. The note with it: dog, MDCK-MDR1.
Data set [6] is described as follows: Efflux ratio of apparent permeability across apical to basolateral to basolateral to apical membrane membrane in MDCK1 at 1 uM in presence of valspodar. The format is ADME, cell-based, Canis lupus familiaris. The note with it: dog, MDCK, with valspodar (concentration not stated).
In data set [7] the test system is MDR1. Description: Efflux ratio of apparent permeability across apical to basolateral to basolateral to apical membrane membrane in MDCKII-MDR1at 1 uM in presence of valspodar. The format is ADME, cell-based, Canis lupus familiaris. The following applies: dog, MDCK-MDR1, with valspodar (concentration not stated).
Data set [8] deals with MDR1. In words: Apparent permeability across apical to basolateral side in MDCKII-MDR1 cells at 3 uM by LC/MS/MS analysis. The note with it: dog, MDCK-MDR1. The format is ADME, cell-based, Canis lupus familiaris.
The subject of data set [9] is MDR1. Description: Apparent permeability across basolateral side to apical side in MDCKII-MDR1 cells at 3 uM by LC/MS/MS analysis. The following applies: dog, MDCK-MDR1. The format is ADME, cell-based, Canis lupus familiaris.
Data set [10] can be described thus: Apparent permeability across basolateral side to apical side in MDCK1 cells at 3 uM by LC/MS/MS analysis. The format is ADME, cell-based, Canis lupus familiaris. The following applies: dog, MDCK.
The nature of data set [11]: Apparent permeability across apical to basolateral side in MDCK1 cells at 3 uM by LC/MS/MS analysis. The format is ADME, cell-based, Canis lupus familiaris. The note with it: dog, MDCK.
Data set [12] in a line: Cmax in CD-1 mouse at 20 mg/kg, po by LC-MS/MS analysis. The format is ADME, organism-based. Also on record: route oral, dose 20 mg/kg. The following applies: in vivo.
Data set [13] is described as follows: Efflux ratio of apparent permeability across apical to basolateral to basolateral to apical membrane membrane in MDCK1 at 3 uM. The format is ADME, cell-based, Canis lupus familiaris. The note with it: dog, mdck1, 3 µM.
Data set [14] in a line: Efflux ratio of apparent permeability across apical to basolateral to basolateral to apical membrane membrane in MDCK1 at 3 uM in presence of valspodar. The following applies: dog, MDCK, with valspodar (concentration not stated). The format is ADME, cell-based, Canis lupus familiaris.
In data set [15] the test system is MDR1. In words: Efflux ratio of apparent permeability across apical to basolateral to basolateral to apical membrane membrane in MDCKII-MDR1 at 3 uM. The format is ADME, cell-based, Canis lupus familiaris. The following applies: dog, MDCK-MDR1.
Data set [16] concerns MDR1. Description: Efflux ratio of apparent permeability across apical to basolateral to basolateral to apical membrane membrane in MDCKII-MDR1at 3 uM in presence of valspodar. The format is ADME, cell-based, Canis lupus familiaris. The following applies: dog, MDCK-MDR1, with valspodar (concentration not stated).
Data set [17] can be described thus: AUC (0 to t) in CD-1 mouse at 20 mg/kg, po 30 mins prior to 10 mg/kg, po docetaxel administration measured after 8 hrs by LC-MS/MS analysis. Also noted: route oral, dose 20 mg/kg, time 8.5 hrs. The format is ADME, organism-based. The note with it: in vivo.
A short description of data set [18]: Cmax in CD-1 mouse at 20 mg/kg, po 30 mins prior to 10 mg/kg, po docetaxel administration measured after 8 hrs by LC-MS/MS analysis. Also on record: route oral, time 8.5 hrs, dose 20 mg/kg. The following applies: in vivo. The format is ADME, organism-based.
A short description of data set [19]: Tmax in CD-1 mouse at 20 mg/kg, po 30 mins prior to 10 mg/kg, po docetaxel administration measured after 8 hrs by LC-MS/MS analysis. The format is ADME, organism-based. The following applies: in vivo, time 8.5 hrs.
Data set [20] in a line: Half life in CD-1 mouse at 20 mg/kg, po 30 mins prior to 10 mg/kg, po docetaxel administration measured after 8 hrs by LC-MS/MS analysis. The format is ADME, organism-based. The following applies: in vivo, time 8.5 hrs.

Cytochrome P450 3A4, sequence (P08684 whole entry): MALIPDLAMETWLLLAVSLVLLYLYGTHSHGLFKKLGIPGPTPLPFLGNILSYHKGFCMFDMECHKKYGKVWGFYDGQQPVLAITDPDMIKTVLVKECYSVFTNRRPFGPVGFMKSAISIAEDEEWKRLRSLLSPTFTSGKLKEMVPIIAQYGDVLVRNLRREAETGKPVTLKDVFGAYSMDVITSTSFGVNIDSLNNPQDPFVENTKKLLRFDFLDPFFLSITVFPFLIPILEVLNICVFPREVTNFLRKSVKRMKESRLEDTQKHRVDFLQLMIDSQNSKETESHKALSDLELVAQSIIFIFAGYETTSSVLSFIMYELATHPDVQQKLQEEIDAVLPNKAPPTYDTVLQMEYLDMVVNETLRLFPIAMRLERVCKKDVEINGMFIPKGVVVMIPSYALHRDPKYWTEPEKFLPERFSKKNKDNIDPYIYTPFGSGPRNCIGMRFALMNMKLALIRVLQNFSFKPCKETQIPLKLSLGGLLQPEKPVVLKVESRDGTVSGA

Turning to `COc1cc2c(cc1OC)CN(CCc1ccc(-n3nnc(-c4cc(OC)c(OC)cc4NC(=O)c4cc(=O)c5ccccc5o4)n3)cc1)CC2`, the Activity in data set [1] turned out to be 6%. Also, the IC50 in data set [2] was over 9000 nM. The basolateral-to-apical permeability (Papp B→A) at 1 µM in data set [3] is 0.0049 ×10⁻⁶ cm/s. Besides, the efflux ratio at 1 µM in data set [4] stood at 1.83; in data set [5] it was 5.74; in [6], 1.36; in data set [7] it was 1.73.
With `COc1cc2c(cc1OC)CN(CCc1ccc(-n3nnc(-c4cc(OCCc5cccnc5)ccc4NC(=O)c4cc(=O)c5ccccc5o4)n3)cc1)CC2`, the Activity in data set [1] worked out at 1%. In [2], this compound gave a 50% inhibitory concentration (IC50) of 726 nM.
Regarding `COc1cc2c(cc1OC)CN(CCc1ccc(-n3nnc(-c4cc(OC)c(OC)cc4NC(=O)c4ccc(-c5cccnc5)cc4)n3)cc1)CC2`, the Activity in data set [1] is 0%. Also, the IC50 in [2] is over 9000 nM.
Take `COc1cc2c(cc1OC)CN(CCc1ccc(-n3nnc(-c4cc(Oc5ccncc5)ccc4NC(=O)c4cc(=O)c5ccccc5o4)n3)cc1)CC2`: the Activity in data set [1] was found to be 9%. For the same compound, in [2], the IC50 is over 9000 nM.
For `COc1cc2c(cc1OC)CN(CCc1ccc(-n3nnc(-c4cc(OCc5cccnc5)c(OC)cc4NC(=O)c4cc(=O)c5ccccc5o4)n3)cc1)CC2`, in that order: 36% and over 9000 nM.
With `COc1cc2c(cc1OC)CN(CCc1ccc(-n3nnc(-c4cc(OC)c(OC)cc4NC(=O)c4cc(=O)c5cc(-c6ccncc6)ccc5o4)n3)cc1)CC2`, the Activity in [1] is reported as 1%. The IC50 in data set [2] is over 9000 nM.
As for `COc1cc(NC(=O)c2cc(=O)c3ccccc3o2)c(-c2nnn(-c3ccc(CCN4CCc5ccncc5C4)cc3)n2)cc1OC`, the Activity in [1] is 1%. Inhibition in [2] was half-maximal at 1050 nM (IC50).
For `COc1cc2c(cc1OC)CN(CCc1ccc(-n3nnc(-c4cc(OCc5ccncc5)ccc4NC(=O)c4cc(=O)c5ccccc5o4)n3)cc1)CC2`, in that order: 33% and over 9000 nM.
For the compound `COc1cc2c(cc1OC)CN(CCc1ccc(-n3nnc(-c4cc(OC)c(OC)cc4NC(=O)c4cc(=O)c5cc(Br)ccc5o4)n3)cc1)CC2`, the Activity in data set [1] amounted to 30%. The IC50 in data set [2] is over 9000 nM.
Regarding `COc1cc2c(cc1OC)CN(CCc1ccc(-n3nnc(-c4cc(OCc5cccnc5)ccc4NC(=O)c4cc(=O)c5ccccc5o4)n3)cc1)CC2`, the Activity in data set [1] was 3%. The concentration for half-maximal inhibition (IC50) in data set [2] was over 9000 nM.
For the compound `COc1cc(NC(=O)c2cc(=O)c3ccccc3o2)c(-c2nnn(-c3ccc(CCN4CCn5cncc5C4)cc3)n2)cc1OCc1ccccc1`, the Activity in [1] is 13%. The compound further returned an IC50 in [2] of 2040 nM. In data set [8], the Papp A→B at 3 µM is under 0.02 ×10⁻⁶ cm/s. In addition, the Papp B→A at 3 µM in data set [9] is under 0.02 ×10⁻⁶ cm/s.
On to `COc1cc2c(cc1OC)CN(CCc1ccc(-n3nnc(-c4cc(OC)c(OC)cc4NC(=O)c4cc(=O)c5cc(-n6ccnc6)ccc5o4)n3)cc1)CC2`, for which the Activity in [1] was 6%. Besides, half-maximal inhibition in [2] (IC50) required 3340 nM.
Turning to `COc1cc(NC(=O)c2cc(=O)c3ccccc3o2)c(-c2nnn(-c3ccc(CCN4CCc5cnccc5C4)cc3)n2)cc1OC`, the Activity in data set [1] was 1%. The compound further showed an IC50 in data set [2] of 1070 nM. Moreover, the Papp A→B at 3 µM in data set [8] was under 0.02 ×10⁻⁶ cm/s. Moreover, the Papp B→A at 3 µM in data set [9] was under 0.02 ×10⁻⁶ cm/s.
Turning to `COc1cc2c(cc1OC)CN(CCc1ccc(-n3nnc(-c4cc(OC)c(OC)cc4NC(=O)c4ccc(-n5ccnc5)cc4)n3)cc1)CC2`, in [1], the Activity came to 5%. Moreover, in [2], the IC50 came out at 516 nM.
In the case of `COc1cc(NC(=O)c2cc(=O)c3ccccc3o2)c(-c2nnn(-c3ccc(CCN4CCc5ccc(-n6ccnc6)cc5C4)cc3)n2)cc1OC`, the Activity in data set [1] came out at 1%. In data set [2], this compound displayed a half-inhibitory concentration (IC50) of 397 nM.
Take `COc1cc2c(cc1OC)CN(CCc1ccc(-n3nnc(-c4cc(Oc5cccnc5)ccc4NC(=O)c4cc(=O)c5ccccc5o4)n3)cc1)CC2`: the Papp B→A at 3 µM is under 0.002 ×10⁻⁶ cm/s in [10] and 0.002 ×10⁻⁶ cm/s in data set [9]. In addition, the values for the apparent permeability from apical to basolateral (Papp A→B) at 3 µM in data set [11] and in data set [8] were 0.0093 ×10⁻⁶ cm/s and 0.0072 ×10⁻⁶ cm/s, respectively. In addition, the Activity in data set [1] is on record as 2%. In [2], this compound displayed a concentration for half-maximal inhibition (IC50) of 1470 nM. Moreover, the Cmax is 3.4 nM in data set [12] and 2.46 ng/mL in [18]. The Ratio in data set [13] is under 0.22. In addition, the efflux ratio at 3 µM came out at 0.085 in data set [14], 0.277 in data set [15] and 0.093 in data set [16]. The compound also yielded an AUC(0-t) at 8.5 h in [17] of 11.7 ng·h/mL. Also, the Tmax in data set [19] was 0.5 h. Moreover, in [20], the half-life was 6.02 h.
For the compound `COc1cc(NC(=O)c2cnc3ccccc3c2)c(-c2nnn(-c3ccc(CCN4CCc5cnccc5C4)cc3)n2)cc1OCc1ccccc1`, the Activity in data set [1] was 3%. Further, the 50% inhibitory concentration (IC50) in [2] came out at 851 nM.
For the compound `COc1cc(NC(=O)c2cc(=O)c3ccccc3o2)c(-c2nnn(-c3ccc(CCN4CCc5cnccc5C4)cc3)n2)cc1OCc1ccccc1`, in data set [1], the Activity turned out to be 3%. In addition, in [2], half-maximal inhibition (IC50) required 1240 nM.
For `COc1cc(NC(=O)c2cc(=O)c3ccccc3o2)c(-c2nnn(-c3ccc(CCN4CCn5cncc5C4)cc3)n2)cc1OC`, in data set [1], the Activity is reported as 6%. Half-maximal inhibition in data set [2] (IC50) required 149 nM.
As to `COc1cc2c(cc1OC)CN(CCc1ccc(-n3nnc(-c4cc(OCc5ccccc5)c(OC)cc4NC(=O)c4cc(=O)c5ccccc5o4)n3)cc1)CC2`, the Activity in [1] was determined as 30%. In [2], this compound displayed an IC50 of over 9000 nM.
Turning to `COc1cc2c(cc1OC)CN(CCc1ccc(-n3nnc(-c4cc(OC)c(OC)cc4NC(=O)c4ccc(-c5ccncc5)cc4)n3)cc1)CC2`, the Activity in data set [1] is 11%. The same compound gave a 50% inhibitory concentration (IC50) in data set [2] of over 9000 nM.
For `COc1cc(NC(=O)c2cc(=O)c3ccccc3o2)c(-c2nnn(-c3ccc(CCN4CCc5cc(-n6ccnc6)ccc5C4)cc3)n2)cc1OC`, in that order: 10% and 305 nM.
As for `CC(=O)N1CCN(c2ccc(OCC3COC(Cn4ccnc4)(c4ccc(Cl)cc4Cl)O3)cc2)CC1` (configuration not stated) [KETOCONAZOLE], in data set [1], the Activity turned out to be 39%.

Usually IC50 stands for the concentration needed to halve the response being measured. Read a high IC50 as a need for much substance. In general, Papp B→A refers to how fast a substance crosses the layer from the basolateral side. As usually defined, the efflux ratio is the permeability from basolateral to apical divided by that in the opposite direction, in the common usage. In general, Papp A→B refers to the apparent permeability from the apical to the basolateral side of a cell layer. Broadly, the Cmax is the highest concentration seen after dosing. The term AUC(0-t) denotes exposure summed from dosing to a finite time, without extrapolation to infinity. Low readings indicate low exposure, high ones high exposure. The term Tmax denotes the time at which the peak concentration occurs. As usually defined, the half-life is how long it takes for the measured level to halve. Low readings indicate rapid decline, high ones slow decline.
